Assays:
[1] = target: Geranylgeranyl transferase type I (Homo sapiens, UniProt P49354+P53609); assay: Inhibitory activity against recombinant human Geranylgeranyl transferase type I; type: protein-complex assay
[2] = target: T1, Protein farnesyltransferase (Homo sapiens, UniProt P49354+P49356); assay: Kinetic parameter for inhibition of farnesyl protein transferase; type: protein-complex assay
[3] = target: T1, Protein farnesyltransferase; assay: Percent inhibition of H-Ras processing in COS cells at 5.3 uM; type: cell-based
[4] = target: T1, Protein farnesyltransferase; assay: Inhibition of recombinant human farnesyl protein transferase; type: protein-complex assay

IC50 [1]: 5.3 µM
Ki [2]: 0.17 µM
inhibition [3]: 26%
IC50 [4]: 0.15 µM
SMILES: C=C1C(=O)O[C@H]2[C@H]1[C@@H](OC(C)=O)C/C(C)=C/CC/C(C)=C/CC[C@@]1(C)O[C@H]21

Reference: ChEMBL document CHEMBL1159133, “A cembranolide diterpene farnesyl protein transferase inhibitor from the marine soft coral Lobophytum cristagalli” (Bioorg Med Chem Lett, 1996)
